Reference: PubChem BioAssay (NCI)
Values joined by “and” are separate entries in the source; they are usually repeats but may differ in a detail not shown here. Equal values may be shown once.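 Five concentrations, 48 hours, 96-well plates. GI50 is the concentration that inhibits growth by half. Definition used: TGI = concentration required for complete inhibition of growth.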

Columns and labels:
Assay in all cases: NCI-60 cell line screen, 48 h
[1] = tested on: CCRF-CEM leukemia
[2] = tested on: DU-145 prostate
[3] = tested on: HCT-15 colon
[4] = tested on: HOP-62 NSCLC
[5] = tested on: NCI-H226 lung
[6] = tested on: RPMI-8226 leukemia
[7] = tested on: SF-268 CNS
[8] = tested on: SF-295 CNS
[9] = tested on: SN12C renal
[10] = tested on: RXF 393 renal

SMILES	GI50 [1]	TGI [1]	GI50 [2]	GI50 [3]	TGI [3]	GI50 [4]	TGI [4]	GI50 [5]	GI50 [6]	GI50 [7]	TGI [7]	GI50 [8]	GI50 [9]	TGI [9]	TGI [2]	TGI [6]	TGI [8]	TGI [5]	TGI [10]	GI50 [10]
COc1cccc(-c2cc(=O)c3cc(N4CCOCC4)ccc3[nH]2)c1	0.0218 µM	0.111 µM	0.0546 µM	0.0328 µM	0.227 µM and 0.575 µM	0.0791 µM	> 100 µM	0.0806 µM	0.135 µM	0.149 µM	57.6 µM	0.204 µM	0.0868 µM	> 100 µM						
O=C(O)c1ccc(C(O)(c2ccccc2)c2ccccc2)cc1		> 100 µM			> 100 µM		> 100 µM				> 100 µM			> 100 µM	> 100 µM	> 100 µM	> 100 µM			
COc1cc(-c2nc3sc(C)cn3c2/C=C2\C(=O)Nc3ccccc32)c(Br)c(OC)c1OC	43.2 µM	> 100 µM	28.5 µM	29.1 µM	> 100 µM	26.5 µM	88.7 µM	44.2 µM		44.7 µM	> 100 µM	15.6 µM	45.4 µM	> 100 µM	72.4 µM		40.7 µM	> 100 µM		
COc1ccc(C2ON(c3ccccc3)CC=C2C)cc1 (centres undefined)		> 100 µM			> 100 µM		> 100 µM				> 100 µM			> 100 µM		> 100 µM	> 100 µM	> 100 µM	> 100 µM	
CCOC(=O)C(CCC(N)=O)(CCC(=O)OC)C(=O)OCC							> 100 µM				> 100 µM			> 100 µM		> 100 µM	> 100 µM	> 100 µM	> 100 µM	
CCn1c2ccccc2c(=O)c2c(OC)ccc(OC)c21		> 100 µM			> 100 µM		> 100 µM				> 100 µM			> 100 µM		> 100 µM	> 100 µM	> 100 µM	80.1 µM	
CC(=O)OCCOCNC(=S)N/N=C/c1cc([N+](=O)[O-])ccc1O		> 100 µM			> 100 µM		> 100 µM				> 100 µM			> 100 µM			> 100 µM	> 100 µM	> 100 µM	
COc1ccc(/C=C2\COc3ccc(O)c(O)c3C2=O)c(OC)c1OC			3.64 µM	1.74 µM	5.51 µM	3.12 µM	20 µM	2.66 µM	0.457 µM	3.49 µM	21.3 µM	8.1 µM	2.55 µM	8.95 µM	26 µM	2.95 µM	> 100 µM	7.25 µM	3.54 µM	1.87 µM
C[C@@H](NS(=O)(=O)c1ccc(NC(=O)c2ccccc2)cc1)C(=O)O		> 100 µM			> 100 µM						> 100 µM			> 100 µM		> 100 µM	> 100 µM		> 100 µM	
OCC[N+]12CCCN1CCC2		> 100 µM			> 100 µM		> 100 µM				> 100 µM			> 100 µM			> 100 µM	> 100 µM	> 100 µM	
